# Laboratory results from the RepoRT retention time repository (doi:10.1016/j.aca.2019.02.001).
# Test: RP, Agilent ZORBAX Eclipse XDB-C18, 100 × 2.1 mm, 1.8 µm, 50 °C, 0.4 mL/min, estimated dead time 0.55 min; A: water + 0.1% formic acid; B: methanol; gradient (min/%B) 0/30 2/30 5/52 15/65 20/78 22.5/78 29/90 38/100
# Details: stereoisomer not certain
row,Structure (SMILES),LC retention time [min]
1,CCCCCCCCC(=O)O,23
2,O=C(O)CCCC(=O)C(=O)O,7.25
3,NC(=O)CC(N)C(=O)O (configuration not stated),3.75
4,NC(=O)CCC(N)C(=O)O (configuration not stated),4.45
5,COc1cc2c(CCNC(C)=O)c[nH]c2cc1O,11.9
6,CCC=CCC=CCC=CCC=CCC=CCC=CCCC(=O)O,28.5
7,CCCCCCCCCCCCCCCCCCCCCC(=O)O,34
8,CC(O)C(N)C(=O)O (configuration not stated),6.29
9,CCCCC(=O)O,14.5
10,CCCCCCC(=O)O,19.7
11,O=C(O)c1cccnc1C(=O)O,8.32
12,CC(C)C(=O)O,11.4
13,CC(C)CC(=O)O,14
14,CC(=O)NCCc1c[nH]c2ccc(O)cc12,12.2
15,CCCCCCCCCCCCCCCCCCCCC(=O)O,33.4
16,CC(CCC(=O)O)C1CCC2C3CCC4CC(O)CCC4(C)C3CC(O)C12C (configuration not stated),25.2
17,CCC=CCC=CCC=CCC=CCC=CCCCC(=O)O,27.5
18,CCCCCCCCCCCCCCCCCC(=O)O,31.5
19,NC(Cc1ccc(O)cc1)C(=O)O (configuration not stated),20.5
20,CCCCCCCCC=CCCCCCCCCCCCC(=O)O,32.9
21,CCCCCCCC(=O)O,21.4
22,CCCCC(C)CCC(=O)O (configuration not stated),22.5
23,O=C(O)C(=O)Cc1c[nH]c2ccccc12,15.5
24,CCCCC(C)C(=O)O (configuration not stated),18.9
25,O=C(O)Cc1c[nH]c2ccccc12,13.4
26,CC(C)C(N)C(=O)O (configuration not stated),9.34

row,Structure (SMILES),LC retention time [min]
1,NCCCCNCCCN,9.8
2,CCCCCCCCC=CCCCCCCCCCC(=O)O,31.8
3,CCCCCCCCCCCCC(=O)O,26.4
4,NCCO,5.87
5,CC(N)C(=O)O (configuration not stated),6.78
6,CCCCCCCCC=CCCCCCCCC(=O)O,30.5
7,NC(CS)C(=O)O (configuration not stated),6.31
8,CCC=CCC=CCC=CCCCCCCCC(=O)O,27.5
9,Nc1c(O)cccc1C(=O)O,15.7
10,NCCCCC(N)C(=O)O (configuration not stated),16.2
11,NC(Cc1cnc[nH]1)C(=O)O (configuration not stated),2.35
12,O=C(O)C(O)Cc1c[nH]c2ccccc12 (configuration not stated),12.1
13,CCCCCCCCCCCC(=O)O,25.6
14,O=C(O)Cc1c[nH]c2ccc(O)cc12,12.1
15,CCC(=O)O,9.67
16,NCC(=O)O,5.85
17,CCCCCC(C)C(=O)O (configuration not stated),20.6
18,NCCCNCCCCNCCCN,6.5
19,CCCCCCCCCCCCCCC(=O)O,28.4
20,CCC(C)C(N)C(=O)O (configuration not stated),11.4
21,CC(=O)O,8.11
22,CCCCCCC=CCCCCCCCC(=O)O,27.9
23,COc1ccc2[nH]cc(CC(=O)O)c2c1,12.1
24,CCCCCCCCCCCCCC(=O)O,27.3
25,Nc1c(O)cccc1C(=O)CC(N)C(=O)O (configuration not stated),21
26,CCCCCCCCCCCCCCCC(=O)O,29.8

row,Structure (SMILES),LC retention time [min]
1,O=C(O)c1cc(=O)c2ccccc2[nH]1,17.4
2,NC(Cc1ccccc1)C(=O)O (configuration not stated),11.8
3,CCCC(=O)O,11.8
4,CCCCCCCCC=CCCCCCCCCCCCCCC(=O)O,34.2
5,NC(N)=NCCCC(N)C(=O)O (configuration not stated),3.02
6,O=C(O)C1CCCN1 (configuration not stated),8.37
7,CC(CCC(=O)O)C1CCC2C3CCC4CC(O)CCC4(C)C3CCC12C (configuration not stated),26.2
8,Nc1ccccc1C(=O)CC(N)C(=O)O (configuration not stated),9.21
9,CC(CCC(=O)O)C1CCC2C3C(O)CC4CC(O)CCC4(C)C3CCC12C (configuration not stated),24.9
10,CCCCCC(=O)O,17.4
11,CSCCC(N)C(=O)O (configuration not stated),9.06
12,NC(Cc1c[nH]c2ccccc12)C(=O)O (configuration not stated),9.89
13,CCCCCC=CCC=CCC=CCC=CCCCC(=O)O,28.7
14,CC(CCC(=O)O)C1CCC2C3C(O)CC4CC(O)CCC4(C)C3CC(O)C12C (configuration not stated),24.2
15,CCCCCC=CCC=CCCCCCCCC(=O)O,28.8
16,NCCCCN,17.6
17,CC(C)CC(N)C(=O)O (configuration not stated),11.7
18,O=C(O)c1cc(=O)c2cccc(O)c2[nH]1,9.89
19,CCCCCCCCCCCCCCCCCCC(=O)O,32.1
20,CCCCC(CC)C(=O)O (configuration not stated),20.2
21,CCC(C)CC(=O)O (configuration not stated),16.7
22,NCCc1c[nH]c2ccccc12,13.4
23,CC(C)CCC(=O)O,17.1
24,NC(CO)C(=O)O (configuration not stated),5.14
25,CCCCCCCCCC(=O)O,24.3
